Results taken from PubChem BioAssay (NCI).
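Where inhibition never reached the appropriate level, the endpoint shown equals the highest concentration tested. Otherwise, values were interpolated linearly from a five-concentration, 48-hour dose response in 96-well plates. The concentration for 50% growth inhibition is given as GI50. At the TGI there is no net growth.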

How the values were obtained:
Test in all cases: DTP human tumour cell line panel, 48 h
SK-MEL-28 melanoma = system: SK-MEL-28 melanoma
T-47D breast = system: T-47D breast
HT29 colon = system: HT29 colon
NCI-H460 lung = system: NCI-H460 lung
SN12C renal = system: SN12C renal
CAKI-1 renal = system: CAKI-1 renal
HL-60(TB) leukemia = system: HL-60(TB) leukemia
SNB-75 CNS = system: SNB-75 CNS
MDA-MB-231 breast = system: MDA-MB-231 breast
HOP-62 NSCLC = system: HOP-62 NSCLC
PC-3 prostate = system: PC-3 prostate
RPMI-8226 leukemia = system: RPMI-8226 leukemia
LOX IMVI melanoma = system: LOX IMVI melanoma
TK-10 renal = system: TK-10 renal
ACHN renal = system: ACHN renal
KM12 colon = system: KM12 colon
SF-268 CNS = system: SF-268 CNS
SK-OV-3 ovarian = system: SK-OV-3 ovarian
SK-MEL-5 melanoma = system: SK-MEL-5 melanoma
NCI-H226 lung = system: NCI-H226 lung
MDA-MB-435 = system: MDA-MB-435
HCT-116 colon = system: HCT-116 colon
SNB-19 CNS = system: SNB-19 CNS
MALME-3M melanoma = system: MALME-3M melanoma
SR leukemia = system: SR leukemia
UO-31 renal = system: UO-31 renal
NCI/ADR-RES ovarian = system: NCI/ADR-RES ovarian
COLO 205 colon = system: COLO 205 colon
CCRF-CEM leukemia = system: CCRF-CEM leukemia
NCI-H522 lung = system: NCI-H522 lung
RXF 393 renal = system: RXF 393 renal
BT-549 breast = system: BT-549 breast
SF-539 CNS = system: SF-539 CNS
OVCAR-4 ovarian = system: OVCAR-4 ovarian
OVCAR-5 ovarian = system: OVCAR-5 ovarian
HCT-15 colon = system: HCT-15 colon
K-562 leukemia = system: K-562 leukemia
OVCAR-8 ovarian = system: OVCAR-8 ovarian
HOP-92 NSCLC = system: HOP-92 NSCLC
IGROV1 ovarian = system: IGROV1 ovarian
U251 CNS = system: U251 CNS
A549 NSCLC = system: A549 NSCLC
EKVX NSCLC = system: EKVX NSCLC
HCC-2998 colon = system: HCC-2998 colon
UACC-62 melanoma = system: UACC-62 melanoma
SK-MEL-2 melanoma = system: SK-MEL-2 melanoma
SF-295 CNS = system: SF-295 CNS
NCI-H23 lung = system: NCI-H23 lung
MOLT-4 leukemia = system: MOLT-4 leukemia
HS 578T breast = system: HS 578T breast
SW-620 colon = system: SW-620 colon
M14 melanoma = system: M14 melanoma
UACC-257 melanoma = system: UACC-257 melanoma
MCF7 breast = system: MCF7 breast
786-0 renal = system: 786-0 renal
DU-145 prostate = system: DU-145 prostate

`C=C(C=O)[C@@H]1CC[C@]2(C)[C@H](CC=C3[C@H]4[C@@H](C)[C@H](C)CC[C@]4(C(=O)OC)CC[C@]32C)[C@@]1(C)CCC#N` was tested, and the GI50 (SK-MEL-28 melanoma) was 1810 nM, the TGI (SK-MEL-28 melanoma) was 3330 nM and the GI50 (T-47D breast) was 1340 nM. It also gave a TGI (T-47D breast) of 5540 nM, a GI50 (HT29 colon) of 1590 nM and a TGI (HT29 colon) of 3470 nM. For the same molecule, the GI50 (NCI-H460 lung) was 1880 nM, the TGI (NCI-H460 lung) was 3540 nM and the GI50 (SN12C renal) was 1820 nM. It also gave a TGI (SN12C renal) of 3830 nM, a GI50 (CAKI-1 renal) of 1560 nM and a TGI (CAKI-1 renal) of 3160 nM. The GI50 (HL-60(TB) leukemia) was 2260 nM, the TGI (HL-60(TB) leukemia) was 5950 nM and the GI50 (SNB-75 CNS) was 1550 nM. It also gave a TGI (SNB-75 CNS) of 3010 nM, a GI50 (MDA-MB-231 breast) of 1790 nM and a TGI (MDA-MB-231 breast) of 3760 nM. For the same molecule, the GI50 (HOP-62 NSCLC) was 1960 nM, the TGI (HOP-62 NSCLC) was 3900 nM and the GI50 (PC-3 prostate) was 1200 nM. It also gave a TGI (PC-3 prostate) of 3100 nM, a GI50 (RPMI-8226 leukemia) of 1610 nM and a TGI (RPMI-8226 leukemia) of 5710 nM. The GI50 (LOX IMVI melanoma) was 1610 nM, the TGI (LOX IMVI melanoma) was 3080 nM and the GI50 (TK-10 renal) was 1610 nM. The TGI (TK-10 renal) was 3320 nM, the GI50 (ACHN renal) was 1640 nM and the TGI (ACHN renal) was 3020 nM. For the same molecule, the GI50 (KM12 colon) was 1600 nM, the TGI (KM12 colon) was 3060 nM and the GI50 (SF-268 CNS) was 1990 nM. For the same molecule, the TGI (SF-268 CNS) was 3570 nM, the GI50 (SK-OV-3 ovarian) was 2390 nM and the TGI (SK-OV-3 ovarian) was 5260 nM. It also gave a GI50 (SK-MEL-5 melanoma) of 1740 nM, a TGI (SK-MEL-5 melanoma) of 3140 nM and a GI50 (NCI-H226 lung) of 1810 nM. For the same molecule, the TGI (NCI-H226 lung) was 3940 nM, the GI50 (MDA-MB-435) was 1810 nM and the TGI (MDA-MB-435) was 3530 nM. It also gave a GI50 (HCT-116 colon) of 1490 nM, a TGI (HCT-116 colon) of 3050 nM and a GI50 (SNB-19 CNS) of 1940 nM. The TGI (SNB-19 CNS) was 4160 nM, the GI50 (MALME-3M melanoma) was 1960 nM and the TGI (MALME-3M melanoma) was 3690 nM. For the same molecule, the GI50 (SR leukemia) was 1860 nM, the TGI (SR leukemia) was greater than 100000 nM and the GI50 (UO-31 renal) was 1480 nM. For the same molecule, the TGI (UO-31 renal) was 2810 nM, the GI50 (NCI/ADR-RES ovarian) was 1950 nM and the TGI (NCI/ADR-RES ovarian) was 4580 nM. The GI50 (COLO 205 colon) was 1800 nM, the TGI (COLO 205 colon) was 3550 nM and the GI50 (CCRF-CEM leukemia) was 1420 nM. It also gave a TGI (CCRF-CEM leukemia) of 9470 nM, a GI50 (NCI-H522 lung) of 1760 nM and a TGI (NCI-H522 lung) of 3310 nM. For the same molecule, the GI50 (RXF 393 renal) was 1990 nM, the TGI (RXF 393 renal) was 3550 nM and the GI50 (BT-549 breast) was 1620 nM. It also gave a TGI (BT-549 breast) of 3240 nM, a GI50 (SF-539 CNS) of 1930 nM and a TGI (SF-539 CNS) of 3490 nM. The GI50 (OVCAR-4 ovarian) was 3070 nM, the TGI (OVCAR-4 ovarian) was 10700 nM and the GI50 (OVCAR-5 ovarian) was 2160 nM. It also gave a TGI (OVCAR-5 ovarian) of 4890 nM, a GI50 (HCT-15 colon) of 1470 nM and a TGI (HCT-15 colon) of 3070 nM. The GI50 (K-562 leukemia) was 2830 nM, the TGI (K-562 leukemia) was greater than 100000 nM and the GI50 (OVCAR-8 ovarian) was 1900 nM. It also gave a TGI (OVCAR-8 ovarian) of 3890 nM, a GI50 (HOP-92 NSCLC) of 1300 nM and a TGI (HOP-92 NSCLC) of 2640 nM. For the same molecule, the GI50 (IGROV1 ovarian) was 1820 nM, the TGI (IGROV1 ovarian) was 3750 nM and the GI50 (U251 CNS) was 1680 nM. The TGI (U251 CNS) was 3120 nM, the GI50 (A549 NSCLC) was 3490 nM and the TGI (A549 NSCLC) was 14800 nM. It also gave a GI50 (EKVX NSCLC) of 1890 nM, a TGI (EKVX NSCLC) of 3710 nM and a GI50 (HCC-2998 colon) of 1630 nM. For the same molecule, the TGI (HCC-2998 colon) was 3110 nM, the GI50 (UACC-62 melanoma) was 1590 nM and the TGI (UACC-62 melanoma) was 3590 nM. For the same molecule, the GI50 (SK-MEL-2 melanoma) was 1710 nM, the TGI (SK-MEL-2 melanoma) was 3210 nM and the GI50 (SF-295 CNS) was 1340 nM. It also gave a TGI (SF-295 CNS) of 2670 nM, a GI50 (NCI-H23 lung) of 1810 nM and a TGI (NCI-H23 lung) of 3590 nM. The GI50 (MOLT-4 leukemia) was 2660 nM, the TGI (MOLT-4 leukemia) was 12600 nM and the GI50 (HS 578T breast) was 2530 nM. It also gave a TGI (HS 578T breast) of 5980 nM, a GI50 (SW-620 colon) of 1760 nM and a TGI (SW-620 colon) of 3360 nM. The GI50 (M14 melanoma) was 1790 nM, the TGI (M14 melanoma) was 3840 nM and the GI50 (UACC-257 melanoma) was 1820 nM. The TGI (UACC-257 melanoma) was 3530 nM, the GI50 (MCF7 breast) was 1610 nM and the TGI (MCF7 breast) was 4090 nM. The GI50 (786-0 renal) was 1730 nM, the TGI (786-0 renal) was 3290 nM and the GI50 (DU-145 prostate) was 1940 nM. The TGI (DU-145 prostate) was 3750 nM.
